How the values were obtained:
[1] = target: T1, catalytic domain (JH1, amino acids 826-1132) of human JAK2 (Homo sapiens, UniProt O60674); test: JAK2 LanthaScreen JH1 Binding Assay; settings: JAK2 JH1 1.5 nM, 50 nM tracer, 2 hours at 25° C.; read-out: JH1 BIND
T1 construct: catalytic domain (JH1, amino acids 826-1132) of human JAK2; FLAG (N); biotin (biotinylated); purchased Carna Biosciences 08-445-20N; host or cells: baculovirus expression system
How it was run: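 FLAG-tagged, biotinylated JAK2 JH1 (aa 826-1132, baculovirus-expressed; 1.5 nM) incubated 2 h at 25° C with compounds, 50 nM fluorescent tracer and 0.5 nM Streptavidin-Tb in Tris pH 7.5 buffer with MgCl2, Brij-35, BSA, EGTA, glycerol, DTT. Nonspecific binding defined with 2 mM ATP; TR-FRET IC50 from four-parameter fit.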

[2] = target: T2, pseudo-kinase domain (JH2, amino-acids 536-812) of human Wild Type JAK2 (Homo sapiens, UniProt O60674, F794H/W659A/W777A); test: JAK2 LanthaScreen JH2-WT Binding Assay; settings: JAK2 JH2-WT 0.145 nM, 50 nM tracer, 1 hour at 25° C.; read-out: JH2 BIND WT
T2 construct: pseudo-kinase domain (JH2, amino-acids 536-812 with 3 surface mutations W659A, W777A, F794H); His (C); purchased BPS Bioscience 79463; host or cells: baculovirus expression system
How it was run: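 Biotinylated His-Avi-tagged JAK2 JH2 (0.145 nM), baculovirus-expressed, incubated with compounds, 50 nM fluorescent JH2 tracer and 0.25 nM streptavidin-Tb, 1 h at 25° C in pH 7.5 Tris buffer with MgCl2 and DTT. Non-specific binding defined with 2 mM ATP. TR-FRET read; IC50 from four-parameter fit.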

[3] = target: T3, pseudo-kinase domain (JH2, amino-acids 536-812) of human V617F mutant JAK2 (Homo sapiens, UniProt O60674, F794H/V617F/W659A/W777A); test: JAK2 LanthaScreen JH2-V617F Binding Assay; settings: JAK2 JH2-V617F 0.26 nM, 50 nM tracer, 1 hour at 25° C.; read-out: JH2 BIND V617F
T3 construct: pseudo-kinase domain (JH2, amino-acids 536-812 with 3 surface mutations W659A, W777A, F794H); His (C); purchased BPS Bioscience 79498; host or cells: baculovirus expression system
How it was run: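 Biotinylated His-Avi-tagged JH2 protein was baculovirus-expressed and used at 0.26 nM. It was incubated with compound, 50 nM fluorescent JH2 tracer and 0.25 nM streptavidin-Tb for 1 h at 25 °C in pH 7.5 Tris buffer with MgCl2, BSA, DTT. Non-specific binding was defined with 2 mM ATP. IC50 came from four-parameter fits of TR-FRET signal.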

[4] = target: catalytic domain (JH1, amino acids 808-1132) of human JAK2 (Homo sapiens, UniProt O60674); test: JAK2 HTRF Enzyme Activity Assay; assay type: biochemical; settings: ATP 30 µM, 60 minutes at 25° C.; read-out: V617F ENZ 30 UM
Sequence of catalytic domain (JH1, amino acids 808-1132) of human JAK2 (O60674 808-1132 limits assumed): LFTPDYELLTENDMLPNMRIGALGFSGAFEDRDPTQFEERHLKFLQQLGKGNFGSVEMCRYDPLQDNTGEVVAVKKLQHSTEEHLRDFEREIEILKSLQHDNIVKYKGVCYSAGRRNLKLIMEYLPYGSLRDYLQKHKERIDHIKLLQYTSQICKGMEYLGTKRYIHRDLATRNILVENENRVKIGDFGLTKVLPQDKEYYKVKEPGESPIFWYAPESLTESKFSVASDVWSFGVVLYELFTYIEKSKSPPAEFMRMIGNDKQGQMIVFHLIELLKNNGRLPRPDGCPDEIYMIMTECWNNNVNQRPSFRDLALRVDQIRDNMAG

T1 sequence (O60674 826-1132): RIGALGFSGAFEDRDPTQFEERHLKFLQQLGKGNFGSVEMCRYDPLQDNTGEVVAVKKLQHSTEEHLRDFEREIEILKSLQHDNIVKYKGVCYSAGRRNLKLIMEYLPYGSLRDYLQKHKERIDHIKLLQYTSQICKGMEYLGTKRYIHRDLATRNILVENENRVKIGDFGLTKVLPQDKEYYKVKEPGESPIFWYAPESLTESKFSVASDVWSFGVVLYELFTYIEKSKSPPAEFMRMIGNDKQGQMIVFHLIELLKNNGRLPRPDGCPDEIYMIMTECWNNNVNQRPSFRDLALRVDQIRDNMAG
T3 sequence (O60674 536-812 V617F/W659A/W777A/F794H): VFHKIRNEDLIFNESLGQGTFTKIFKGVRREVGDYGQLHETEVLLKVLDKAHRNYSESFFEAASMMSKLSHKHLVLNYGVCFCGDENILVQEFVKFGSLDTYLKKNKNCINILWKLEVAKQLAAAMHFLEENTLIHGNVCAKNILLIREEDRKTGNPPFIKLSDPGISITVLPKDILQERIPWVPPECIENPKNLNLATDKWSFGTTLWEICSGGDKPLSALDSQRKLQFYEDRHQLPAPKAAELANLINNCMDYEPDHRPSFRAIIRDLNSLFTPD
T2 sequence (O60674 536-812 W659A/W777A/F794H): as the sequence (O60674 536-812 V617F/W659A/W777A/F794H) above, with F82V counted along it

For `[2H]C([2H])([2H])n1c(=O)n([C@@H]2CC[C@@H](NC(=O)OC)C2)c2cc(Nc3cc(-c4cnccc4C(F)(F)F)c4c(n3)n(-c3cnn(C(F)F)c3)c(=O)n4C)ncc21` [Example 89, Methyl ((1R,3R)-3-(6-((3-(1-(difluoromethyl)-1H-pyrazol-4-yl)-1-methyl-2-oxo-7-(4-(trifluoromethyl)pyridin-3-yl)-2,3-dihydro-1H-imidazo[4,5-b]pyridin-5-yl)amino)-3-(methyl-d3)-2-oxo-2,3-dihydro-1H-imidazo[4,5-c]pyridin-1-yl)cyclopentyl)carbamate], the IC50 [1] was greater than 1 µM, the IC50 [2] was no more than 0.01 µM and the IC50 [3] was no more than 0.01 µM. It also gave an IC50 [4] greater than 1 µM.
`[2H]C([2H])([2H])n1c(=O)n(C2CC3(CC(NC(=O)C4CC4)C3)C2)c2cc(Nc3cc(C(=O)N4CCOCC4)c4cccc(C(F)(F)F)c4n3)ncc21` (stereo not shown) [Example 90, N-(6-(3-(Methyl-d3)-6-((4-(morpholine-4-carbonyl)-8-(trifluoromethyl)quinolin-2-yl)amino)-2-oxo-2,3-dihydro-1H-imidazo[4,5-c]pyridin-1-yl)spiro[3,3]heptan-2-yl)cyclopropanecarboxamide] showed an IC50 [1] of 0.1 to 0.5 µM, an IC50 [2] of no more than 0.01 µM and an IC50 [3] of no more than 0.01 µM. It also gave an IC50 [4] greater than 1 µM.
Compound `[2H]C([2H])([2H])n1c(=O)n([C@@H]2CC[C@](C)(NC(=O)C3CC3)C2)c2cc(Nc3cc(C(C)(C)O)cc(-c4ncc(Cl)s4)n3)ncc21` [Example 92, N-((1S,3R)-3-(6-((6-(5-Chlorothiazol-2-yl)-4-(2-hydroxypropan-2-yl)pyridin-2-yl)amino)-3-(methyl-d3)-2-oxo-2,3-dihydro-1H-imidazo[4,5-c]pyridin-1-yl)-1-methylcyclopentyl)cyclopropanecarboxamide] has an IC50 [1] greater than 1 µM, an IC50 [2] of no more than 0.01 µM and an IC50 [3] of no more than 0.01 µM. It also gave an IC50 [4] greater than 1 µM.
`[2H]C([2H])([2H])n1c(=O)n([C@@H]2CC[C@@H](NC(=O)OC)C2)c2cc(Nc3cc(C(C)(C)O)cc(-c4ncc(Cl)s4)n3)ncc21` [Example 93, Methyl ((1R,3R)-3-(6-((6-(5-chlorothiazol-2-yl)-4-(2-hydroxypropan-2-yl)pyridin-2-yl)amino)-3-(methyl-d3)-2-oxo-2,3-dihydro-1H-imidazo[4,5-c]pyridin-1-yl)cyclopentyl)carbamate] showed an IC50 [1] greater than 1 µM, an IC50 [2] of no more than 0.01 µM and an IC50 [3] of no more than 0.01 µM. It also gave an IC50 [4] greater than 1 µM.
In the case of `[2H]C([2H])([2H])n1c(=O)n([C@@H]2CC[C@@H](NC(=O)OC)C2)c2cc(Nc3cc(C(C)(C)O)c4cc(-c5cnn(C)c5)cc(C(F)(F)F)c4n3)ncc21` [Example 94, Methyl ((1R,3R)-3-(6-((4-(2-hydroxypropan-2-yl)-6-(1-methyl-1H-pyrazol-4-yl)-8-(trifluoromethyl)quinolin-2-yl)amino)-3-(methyl-d3)-2-oxo-2,3-dihydro-1H-imidazo[4,5-c]pyridin-1-yl)cyclopentyl)carbamate], the IC50 [1] is reported as greater than 1 µM, the IC50 [2] is reported as no more than 0.01 µM and the IC50 [3] is reported as no more than 0.01 µM. For the same compound, the IC50 [4] was greater than 1 µM.
`[2H]C([2H])([2H])n1c(=O)n([C@@H]2CC[C@@H](NC(=O)OC)C2)c2cc(Nc3cc(C(C)(C)O)cc(-c4cnc(C(F)(F)F)s4)n3)ncc21` [Example 95, Methyl ((1R,3R)-3-(6-((4-(2-hydroxypropan-2-yl)-6-(2-(trifluoromethyl)thiazol-5-yl)pyridin-2-yl)amino)-3-(methyl-d3)-2-oxo-2,3-dihydro-1H-imidazo[4,5-c]pyridin-1-yl)cyclopentyl)carbamate] gave an IC50 [1] greater than 1 µM, an IC50 [2] of no more than 0.01 µM and an IC50 [3] of no more than 0.01 µM. The IC50 [4] was greater than 1 µM.
`[2H]C([2H])([2H])n1c(=O)n([C@@H]2CC[C@@H](NC(=O)OC)C2)c2cc(Nc3cc(C(=O)N4CCOCC4)c4cccc(C(C)(C)C#N)c4n3)ncc21` [Example 96, Methyl ((1R,3R)-3-(6-((8-(2-cyanopropan-2-yl)-4-(morpholine-4-carbonyl)quinolin-2-yl)amino)-3-(methyl-d3)-2-oxo-2,3-dihydro-1H-imidazo[4,5-c]pyridin-1-yl)cyclopentyl)carbamate] gave an IC50 [1] greater than 1 µM, an IC50 [2] of no more than 0.01 µM and an IC50 [3] of no more than 0.01 µM. For the same compound, the IC50 [4] was greater than 1 µM.
`[2H]C([2H])([2H])n1c(=O)n([C@@H]2CC[C@@H](NC(=O)OC)C2)c2cc(Nc3ccc(OC)c(-c4ncc(C(F)(F)F)s4)n3)ncc21` [Example 98, Methyl ((1R,3R)-3-(6-((5-methoxy-6-(5-(trifluoromethyl)thiazol-2-yl)pyridin-2-yl)amino)-3-(methyl-d3)-2-oxo-2,3-dihydro-1H-imidazo[4,5-c]pyridin-1-yl)cyclopentyl)carbamate] was tested, and the IC50 [1] was greater than 1 µM, the IC50 [2] was no more than 0.01 µM and the IC50 [3] was no more than 0.01 µM. The IC50 [4] was greater than 1 µM.
In the case of `[2H]C([2H])([2H])n1c(=O)n([C@@H]2CC[C@@H](NC(=O)OC)C2)c2cc(Nc3cc(C)cc(-c4ncc(C(C)(C)O)s4)n3)ncc21` [Example 99, Methyl ((1R,3R)-3-(6-((6-(5-(2-hydroxypropan-2-yl)thiazol-2-yl)-4-methylpyridin-2-yl)amino)-3-(methyl-d3)-2-oxo-2,3-dihydro-1H-imidazo[4,5-c]pyridin-1-yl)cyclopentyl)carbamate], the IC50 [1] is reported as greater than 1 µM, the IC50 [2] is reported as no more than 0.01 µM and the IC50 [3] is reported as no more than 0.01 µM. It also gave an IC50 [4] greater than 1 µM.
For `[2H]C([2H])([2H])n1c(=O)n([C@@H]2CC[C@@H](NC(=O)OC)C2)c2cc(Nc3cc(C(C)(C)O)cc(-c4ncc(C(F)(F)F)s4)n3)ncc21` [Example 100, Methyl ((1R,3R)-3-(6-((4-(2-hydroxypropan-2-yl)-6-(5-(trifluoromethyl)thiazol-2-yl)pyridin-2-yl)amino)-3-(methyl-d3)-2-oxo-2,3-dihydro-1H-imidazo[4,5-c]pyridin-1-yl)cyclopentyl)carbamate], the IC50 [1] was greater than 1 µM, the IC50 [2] was no more than 0.01 µM and the IC50 [3] was no more than 0.01 µM. The IC50 [4] was greater than 1 µM.
`[2H]C([2H])([2H])n1c(=O)n([C@@H]2CC[C@@H](NC(=O)OC)C2)c2cc(Nc3cc(CN4CC(C(F)F)C4)cc(-c4ncc(C(F)(F)F)s4)n3)ncc21` [Example 101, Methyl ((1R,3R)-3-(6-((4-((3-(difluoromethyl)azetidin-1-yl)methyl)-6-(5-(trifluoromethyl)thiazol-2-yl)pyridin-2-yl)amino)-3-(methyl-d3)-2-oxo-2,3-dihydro-1H-imidazo[4,5-c]pyridin-1-yl)cyclopentyl)carbamate] gave an IC50 [1] greater than 1 µM, an IC50 [2] of no more than 0.01 µM and an IC50 [3] of no more than 0.01 µM. It also gave an IC50 [4] greater than 1 µM.
With `[2H]C([2H])([2H])n1c(=O)n([C@@H]2CC[C@@H](NC(=O)OC)C2)c2cc(Nc3cc(C(=O)N4CCOCC4)c(-c4cnn(C)c4)c(OC4CCC4)n3)ncc21` [Example 102, Methyl ((1R,3R)-3-(6-((6-cyclobutoxy-5-(1-methyl-1H-pyrazol-4-yl)-4-(morpholine-4-carbonyl)pyridin-2-yl)amino)-3-(methyl-d3)-2-oxo-2,3-dihydro-1H-imidazo[4,5-c]pyridin-1-yl)cyclopentyl)carbamate] the IC50 [1] was greater than 1 µM, the IC50 [2] was no more than 0.01 µM and the IC50 [3] was no more than 0.01 µM. It also gave an IC50 [4] greater than 1 µM.
Compound `[2H]C([2H])([2H])n1c(=O)n([C@@H]2CC[C@@H](NC(=O)OC)C2)c2cc(Nc3cc(CO)nc(-c4ccc(C(F)F)s4)n3)ncc21` [Example 103, Methyl ((1R,3R)-3-(6-((2-(5-(difluoromethyl)thiophen-2-yl)-6-(hydroxymethyl)pyrimidin-4-yl)amino)-3-(methyl-d3)-2-oxo-2,3-dihydro-1H-imidazo[4,5-c]pyridin-1-yl)cyclopentyl)carbamate] has an IC50 [1] greater than 1 µM, an IC50 [2] of no more than 0.01 µM and an IC50 [3] of no more than 0.01 µM. It also gave an IC50 [4] greater than 1 µM.
